Data taken from ChEMBL document CHEMBL3627608, “Crystal structures of human RIP2 kinase catalytic domain complexed with ATP-competitive inhibitors: Foundations for understanding inhibitor selectivity” (Bioorg Med Chem, 2015).

Tests used:
[1] = target: T1, Serine/threonine-protein kinase DCLK2 (Homo sapiens) (UniProt Q8N568); experiment: Inhibition of DCAMKL2 (unknown origin) at 10 uM after 120 mins P33 radiolabeled kinase activity assay
T1 sequence (whole entry): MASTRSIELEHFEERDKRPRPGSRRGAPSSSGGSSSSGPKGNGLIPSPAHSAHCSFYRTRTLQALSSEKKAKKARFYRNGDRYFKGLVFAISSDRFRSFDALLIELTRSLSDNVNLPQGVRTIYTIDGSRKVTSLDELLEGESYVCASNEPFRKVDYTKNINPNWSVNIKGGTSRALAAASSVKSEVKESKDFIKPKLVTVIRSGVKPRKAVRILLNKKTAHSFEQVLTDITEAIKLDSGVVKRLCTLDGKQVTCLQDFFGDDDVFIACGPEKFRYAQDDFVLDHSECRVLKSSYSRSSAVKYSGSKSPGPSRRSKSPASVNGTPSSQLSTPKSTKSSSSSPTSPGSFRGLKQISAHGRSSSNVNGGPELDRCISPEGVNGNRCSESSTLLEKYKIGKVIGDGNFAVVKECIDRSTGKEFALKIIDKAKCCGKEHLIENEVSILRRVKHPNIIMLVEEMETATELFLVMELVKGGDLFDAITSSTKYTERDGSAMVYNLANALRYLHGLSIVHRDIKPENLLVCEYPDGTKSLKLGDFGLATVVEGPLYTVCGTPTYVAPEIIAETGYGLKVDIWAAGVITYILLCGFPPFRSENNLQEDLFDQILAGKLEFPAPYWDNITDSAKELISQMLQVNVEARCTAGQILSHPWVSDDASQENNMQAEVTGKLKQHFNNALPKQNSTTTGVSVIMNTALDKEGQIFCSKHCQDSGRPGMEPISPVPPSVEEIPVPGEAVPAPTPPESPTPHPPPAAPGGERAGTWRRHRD

[2] = target: Ephrin type-A receptor 5 (Homo sapiens) (UniProt P54756); experiment: Inhibition of EPHA5 (unknown origin) at 10 uM after 120 mins P33 radiolabeled kinase activity assay
[3] = target: Mitogen-activated protein kinase 3 (Homo sapiens) (UniProt P27361); experiment: Inhibition of ERK1 (unknown origin) at 10 uM after 120 mins P33 radiolabeled kinase activity assay
Mitogen-activated protein kinase 3 (Homo sapiens), sequence (P27361 whole entry): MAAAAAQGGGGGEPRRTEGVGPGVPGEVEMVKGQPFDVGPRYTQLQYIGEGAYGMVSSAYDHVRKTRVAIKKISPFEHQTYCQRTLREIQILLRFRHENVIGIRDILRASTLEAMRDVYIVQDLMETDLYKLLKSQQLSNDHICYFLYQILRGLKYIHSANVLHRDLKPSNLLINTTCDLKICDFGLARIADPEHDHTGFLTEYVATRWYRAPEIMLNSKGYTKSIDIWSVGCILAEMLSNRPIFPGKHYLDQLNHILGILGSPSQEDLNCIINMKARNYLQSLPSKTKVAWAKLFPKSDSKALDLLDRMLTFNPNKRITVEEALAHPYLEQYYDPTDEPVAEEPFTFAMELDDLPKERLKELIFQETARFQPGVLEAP

[4] = target: Glycogen synthase kinase-3 beta (Homo sapiens) (UniProt P49841); experiment: Inhibition of GSK3beta (unknown origin) at 10 uM after 120 mins P33 radiolabeled kinase activity assay
Glycogen synthase kinase-3 beta (Homo sapiens), sequence (P49841 whole entry, looked up, canonical isoform): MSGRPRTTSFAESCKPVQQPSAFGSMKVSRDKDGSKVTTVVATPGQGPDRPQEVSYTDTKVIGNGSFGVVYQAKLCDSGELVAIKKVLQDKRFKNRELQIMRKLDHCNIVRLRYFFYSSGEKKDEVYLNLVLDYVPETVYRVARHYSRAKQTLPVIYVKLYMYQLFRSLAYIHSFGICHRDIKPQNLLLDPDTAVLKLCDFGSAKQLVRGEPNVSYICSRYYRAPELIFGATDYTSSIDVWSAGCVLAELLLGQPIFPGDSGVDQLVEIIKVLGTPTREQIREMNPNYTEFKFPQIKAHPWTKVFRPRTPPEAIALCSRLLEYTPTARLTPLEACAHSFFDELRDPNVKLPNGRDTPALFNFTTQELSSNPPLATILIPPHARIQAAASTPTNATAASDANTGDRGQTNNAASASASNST

[5] = target: T2, Phosphorylase b kinase gamma catalytic chain, liver/testis isoform (Homo sapiens) (UniProt P15735); experiment: Inhibition of PHKg2 (unknown origin) at 10 uM after 120 mins P33 radiolabeled kinase activity assay
T2 sequence (whole entry): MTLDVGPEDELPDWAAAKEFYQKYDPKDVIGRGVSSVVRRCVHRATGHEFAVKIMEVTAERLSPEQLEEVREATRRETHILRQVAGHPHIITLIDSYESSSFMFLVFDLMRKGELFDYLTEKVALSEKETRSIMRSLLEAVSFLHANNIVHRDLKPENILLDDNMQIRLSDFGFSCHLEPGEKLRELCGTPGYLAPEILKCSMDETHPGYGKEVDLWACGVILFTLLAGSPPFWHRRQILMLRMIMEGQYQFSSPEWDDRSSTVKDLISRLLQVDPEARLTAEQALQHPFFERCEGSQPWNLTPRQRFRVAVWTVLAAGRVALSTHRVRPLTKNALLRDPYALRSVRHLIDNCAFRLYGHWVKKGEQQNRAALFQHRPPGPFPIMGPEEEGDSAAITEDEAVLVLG

[6] = target: cAMP-dependent protein kinase catalytic subunit beta (Homo sapiens) (UniProt P22694); experiment: Inhibition of PKAcbeta (unknown origin) at 10 uM after 120 mins P33 radiolabeled kinase activity assay
[7] = target: Protein kinase C gamma type (Homo sapiens) (UniProt P05129); experiment: Inhibition of PKCgamma (unknown origin) at 10 uM after 120 mins P33 radiolabeled kinase activity assay
Homo sapiens = species on record: Homo sapiens; experiment: Inhibition of PKG2 (unknown origin) at 10 uM after 120 mins P33 radiolabeled kinase activity assay
[8] = target: Serine/threonine-protein kinase N2 (Homo sapiens) (UniProt Q16513); experiment: Inhibition of PKN2 (unknown origin) at 10 uM after 120 mins P33 radiolabeled kinase activity assay
[9] = target: Vascular endothelial growth factor receptor 2 (Homo sapiens) (UniProt P35968); experiment: Inhibition of KDR (unknown origin) at 10 uM after 120 mins P33 radiolabeled kinase activity assay
[10] = target: Tyrosine-protein kinase Lyn (Homo sapiens) (UniProt P07948); experiment: Inhibition of LYN B (unknown origin) at 10 uM after 120 mins P33 radiolabeled kinase activity assay
Tyrosine-protein kinase Lyn (Homo sapiens), sequence (P07948 2-512 limits assumed): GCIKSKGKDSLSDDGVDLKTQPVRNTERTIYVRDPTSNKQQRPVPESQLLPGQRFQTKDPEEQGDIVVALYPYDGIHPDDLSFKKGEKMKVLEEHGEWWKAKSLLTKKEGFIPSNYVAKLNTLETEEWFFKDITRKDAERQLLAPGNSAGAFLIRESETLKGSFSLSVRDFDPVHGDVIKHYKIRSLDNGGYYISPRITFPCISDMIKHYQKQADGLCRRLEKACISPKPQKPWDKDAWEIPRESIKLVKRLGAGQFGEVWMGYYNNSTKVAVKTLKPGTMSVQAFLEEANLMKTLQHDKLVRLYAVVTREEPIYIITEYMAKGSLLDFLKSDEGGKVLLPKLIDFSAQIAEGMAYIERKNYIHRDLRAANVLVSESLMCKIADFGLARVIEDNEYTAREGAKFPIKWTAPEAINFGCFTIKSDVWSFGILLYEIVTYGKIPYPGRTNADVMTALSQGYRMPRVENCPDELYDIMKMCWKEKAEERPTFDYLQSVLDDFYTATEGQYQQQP

[11] = target: Ribosomal protein S6 kinase alpha-6 (Homo sapiens) (UniProt Q9UK32); experiment: Inhibition of RSK4 (unknown origin) at 10 uM after 120 mins P33 radiolabeled kinase activity assay
[12] = target: RAC-alpha serine/threonine-protein kinase (Homo sapiens) (UniProt P31749); experiment: Inhibition of AKT1 (unknown origin) at 10 uM after 120 mins P33 radiolabeled kinase activity assay
RAC-alpha serine/threonine-protein kinase (Homo sapiens), sequence (P31749 whole entry): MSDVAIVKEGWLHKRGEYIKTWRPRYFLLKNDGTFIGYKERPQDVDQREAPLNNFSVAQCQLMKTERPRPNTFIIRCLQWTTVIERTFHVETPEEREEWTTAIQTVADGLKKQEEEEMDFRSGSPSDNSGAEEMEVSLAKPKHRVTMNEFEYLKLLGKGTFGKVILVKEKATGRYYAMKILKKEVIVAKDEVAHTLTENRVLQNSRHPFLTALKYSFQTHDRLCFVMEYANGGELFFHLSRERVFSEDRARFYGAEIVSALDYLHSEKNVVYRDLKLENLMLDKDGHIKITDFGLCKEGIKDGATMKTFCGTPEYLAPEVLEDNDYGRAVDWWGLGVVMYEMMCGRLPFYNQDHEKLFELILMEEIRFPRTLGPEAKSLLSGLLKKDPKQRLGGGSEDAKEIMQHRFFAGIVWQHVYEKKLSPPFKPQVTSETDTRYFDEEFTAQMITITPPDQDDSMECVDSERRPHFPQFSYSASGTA

[13] = target: T3, Tyrosine-protein kinase TXK (Homo sapiens) (UniProt P42681); experiment: Inhibition of TXK (unknown origin) at 10 uM after 120 mins P33 radiolabeled kinase activity assay
T3 sequence (whole entry): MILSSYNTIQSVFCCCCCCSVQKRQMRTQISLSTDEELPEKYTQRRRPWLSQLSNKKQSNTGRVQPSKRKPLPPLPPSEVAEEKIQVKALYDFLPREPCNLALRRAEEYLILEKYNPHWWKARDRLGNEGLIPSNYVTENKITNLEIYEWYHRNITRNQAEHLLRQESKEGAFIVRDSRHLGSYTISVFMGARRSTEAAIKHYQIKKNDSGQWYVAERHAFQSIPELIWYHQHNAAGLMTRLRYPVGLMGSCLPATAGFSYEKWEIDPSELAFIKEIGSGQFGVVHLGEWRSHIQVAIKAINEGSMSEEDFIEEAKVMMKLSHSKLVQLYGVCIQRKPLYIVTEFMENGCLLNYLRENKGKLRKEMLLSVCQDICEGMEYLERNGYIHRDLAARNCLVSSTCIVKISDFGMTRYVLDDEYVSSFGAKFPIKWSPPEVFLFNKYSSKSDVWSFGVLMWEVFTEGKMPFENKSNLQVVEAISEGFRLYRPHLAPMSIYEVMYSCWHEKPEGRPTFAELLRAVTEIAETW

[14] = target: Serine/threonine-protein kinase WNK2 (Homo sapiens) (UniProt Q9Y3S1); experiment: Inhibition of WNK2 (unknown origin) at 10 uM after 120 mins P33 radiolabeled kinase activity assay
Serine/threonine-protein kinase WNK2 (Homo sapiens), sequence (Q9Y3S1 whole entry): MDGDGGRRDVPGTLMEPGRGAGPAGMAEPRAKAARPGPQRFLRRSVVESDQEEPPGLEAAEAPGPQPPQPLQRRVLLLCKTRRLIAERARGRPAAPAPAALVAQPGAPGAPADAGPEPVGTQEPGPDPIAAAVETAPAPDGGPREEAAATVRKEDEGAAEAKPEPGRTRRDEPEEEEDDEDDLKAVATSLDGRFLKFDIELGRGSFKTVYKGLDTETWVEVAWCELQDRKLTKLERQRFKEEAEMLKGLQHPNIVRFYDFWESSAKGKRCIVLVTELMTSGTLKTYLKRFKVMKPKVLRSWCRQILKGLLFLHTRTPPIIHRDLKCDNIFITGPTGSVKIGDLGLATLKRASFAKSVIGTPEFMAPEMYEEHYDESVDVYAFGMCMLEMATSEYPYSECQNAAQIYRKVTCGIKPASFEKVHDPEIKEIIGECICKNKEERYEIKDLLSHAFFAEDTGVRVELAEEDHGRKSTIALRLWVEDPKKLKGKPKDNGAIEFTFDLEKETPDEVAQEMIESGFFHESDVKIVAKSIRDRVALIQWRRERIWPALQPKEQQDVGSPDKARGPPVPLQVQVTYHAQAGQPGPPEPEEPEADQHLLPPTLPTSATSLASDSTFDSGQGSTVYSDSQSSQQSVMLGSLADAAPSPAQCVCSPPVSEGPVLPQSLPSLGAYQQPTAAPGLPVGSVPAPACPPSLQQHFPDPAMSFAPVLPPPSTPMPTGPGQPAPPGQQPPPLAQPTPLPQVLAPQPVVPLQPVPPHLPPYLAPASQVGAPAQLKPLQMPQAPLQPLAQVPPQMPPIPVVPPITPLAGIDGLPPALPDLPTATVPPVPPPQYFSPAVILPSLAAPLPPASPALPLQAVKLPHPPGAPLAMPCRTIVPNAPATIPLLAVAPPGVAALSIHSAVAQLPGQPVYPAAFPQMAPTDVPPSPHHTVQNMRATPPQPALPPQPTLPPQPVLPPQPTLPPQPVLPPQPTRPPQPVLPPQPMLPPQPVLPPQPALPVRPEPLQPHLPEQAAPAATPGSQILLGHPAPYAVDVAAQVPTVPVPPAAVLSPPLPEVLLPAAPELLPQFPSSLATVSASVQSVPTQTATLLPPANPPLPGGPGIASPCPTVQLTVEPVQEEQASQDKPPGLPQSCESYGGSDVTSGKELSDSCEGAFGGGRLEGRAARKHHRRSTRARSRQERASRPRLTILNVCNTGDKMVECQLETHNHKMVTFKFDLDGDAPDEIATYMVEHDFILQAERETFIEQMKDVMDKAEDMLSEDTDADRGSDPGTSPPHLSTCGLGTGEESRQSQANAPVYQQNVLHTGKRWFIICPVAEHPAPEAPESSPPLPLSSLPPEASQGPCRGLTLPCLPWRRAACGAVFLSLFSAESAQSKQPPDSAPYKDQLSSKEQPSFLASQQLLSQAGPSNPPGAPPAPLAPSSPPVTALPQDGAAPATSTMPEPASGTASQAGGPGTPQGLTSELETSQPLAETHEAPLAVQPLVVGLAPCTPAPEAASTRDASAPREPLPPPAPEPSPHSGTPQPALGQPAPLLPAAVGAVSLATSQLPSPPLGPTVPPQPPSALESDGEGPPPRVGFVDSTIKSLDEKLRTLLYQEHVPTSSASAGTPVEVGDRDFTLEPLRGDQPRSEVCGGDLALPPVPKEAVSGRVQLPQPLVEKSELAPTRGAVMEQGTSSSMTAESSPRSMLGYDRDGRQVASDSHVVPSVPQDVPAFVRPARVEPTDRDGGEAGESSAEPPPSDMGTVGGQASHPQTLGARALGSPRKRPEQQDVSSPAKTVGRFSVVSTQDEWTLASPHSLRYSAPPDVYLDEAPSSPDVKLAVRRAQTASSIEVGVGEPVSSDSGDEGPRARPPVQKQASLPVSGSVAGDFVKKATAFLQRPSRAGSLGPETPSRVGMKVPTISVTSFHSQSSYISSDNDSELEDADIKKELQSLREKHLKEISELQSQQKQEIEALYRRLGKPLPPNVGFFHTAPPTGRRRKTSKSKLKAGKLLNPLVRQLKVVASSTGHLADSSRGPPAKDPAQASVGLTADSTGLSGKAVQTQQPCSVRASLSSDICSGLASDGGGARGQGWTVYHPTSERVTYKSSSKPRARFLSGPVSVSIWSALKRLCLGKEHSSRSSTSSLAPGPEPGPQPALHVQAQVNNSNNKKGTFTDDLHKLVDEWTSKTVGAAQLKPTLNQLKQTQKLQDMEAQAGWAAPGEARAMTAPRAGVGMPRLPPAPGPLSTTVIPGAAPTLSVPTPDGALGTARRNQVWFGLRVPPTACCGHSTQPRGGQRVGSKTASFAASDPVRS

[15] = target: Inactive tyrosine-protein kinase PEAK1 (Homo sapiens) (UniProt Q9H792); experiment: Inhibition of PEAK1 (unknown origin) at 10 uM after 120 mins P33 radiolabeled kinase activity assay

| SMILES | inhibition [1] [%] | inhibition [2] [%] | inhibition [3] [%] | inhibition [4] [%] | inhibition [5] [%] | inhibition [6] [%] | inhibition [7] [%] | inhibition (Homo sapiens) [%] | inhibition [8] [%] | inhibition [9] [%] | inhibition [10] [%] | inhibition [11] [%] | inhibition [12] [%] | inhibition [13] [%] | inhibition [14] [%] | inhibition [15] [%] |
| --- | --- | --- | --- | --- | --- | --- | --- | --- | --- | --- | --- | --- | --- | --- | --- | --- |
| COCCNC(=O)c1ccc2c(c1)nc(-c1cnc(-c3ccc(Cl)cc3)[nH]1)n2CCOC | -0.71 | 20.2 | 1.41 | 16.9 | 3.38 | -0.18 | 4.86 | -5.6 | 28 | 7.13 | 41.5 | 1.08 | 4.96 | 27.8 | 3.46 | 82.8 |
| CS(=O)(=O)c1cccc(Nc2nccc(-c3sc(N4CCOCC4)nc3-c3cccc(NS(=O)(=O)c4c(F)cccc4F)c3)n2)c1 | -1.11 | 58 | -3.91 | 98.9 | 5.98 | -0.07 | 10.9 | 8.73 | 26.8 | 96.3 | 100 | 66.9 | 3.36 | 97.5 | 43 | 100 |
| CC(C)(C)c1cc(NC(=O)Nc2ccc(Oc3ccncc3)cc2)no1 | 2.04 | 95.5 | 3.03 | 34.9 | -3.81 | 55.2 | 2.25 | 6.69 | 15.8 | 98.6 | 94.8 | 4.26 | 4.64 | 24.8 | 3.16 | 86.1 |
